Data taken from ChEMBL document CHEMBL1201862, “PubChem BioAssay data set” (2004).
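Growth conditions: 96-well plates. Treatment: test compound, 48 hours, 5 concentrations. Analysis: linear interpolation between bracketing concentrations; unreached endpoints set to highest concentration. GI50 = concentration required for 50% inhibition of growth.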 Active and inactive are the calls of the source. Rule as the data show it: active = GI50 up to about 1.1 µM and inactive = higher.

Key:
Assay in all cases: DTP human tumour cell line panel, 48 h
[1] = system: UO-31
[2] = system: CAKI-1
[3] = system: SF-268
[4] = system: SK-OV-3
[5] = system: MDA-N
[6] = system: SF-295
[7] = system: SNB-19
[8] = system: UACC-257
[9] = system: U-251
[10] = system: OVCAR-8
[11] = system: RXF 393
[12] = system: NCI-H23
[13] = system: NCI/ADR-RES
[14] = system: MOLT-4
[15] = system: LOX IMVI
[16] = system: K562
[17] = system: NCI-H226
[18] = system: SW-620
[19] = system: MDA-MB-435
[20] = system: HT-29

Measured: GI50

OCCCCn1cc(Cn2ncc3c(NCc4ccccc4)ncnc32)nn1
inactive: [1] > 100 µM | [2] > 100 µM | [3] > 100 µM | [4] > 100 µM | [5] 42.8 µM | [6] > 100 µM | [7] > 100 µM | [8] > 100 µM | [9] > 100 µM | [10] > 100 µM | [11] > 100 µM | [12] > 100 µM | [13] > 100 µM | [14] 53.1 µM | [15] > 100 µM | [16] 44.3 µM | [17] > 100 µM | [18] > 100 µM | [19] 33.7 µM | [20] > 100 µM

CN(CCCNC(=O)c1c2ccc3ccccc3c2nn1C)CCCNC(=O)c1c2ccc3ccccc3c2nn1C
inactive: [1] 6.47 µM | [2] 1.6 µM | [3] 11.5 µM | [4] 15 µM | [5] 2.96 µM | [6] 4.29 µM | [7] 14.9 µM | [8] 1.9 µM | [9] 7.85 µM | [10] 13.3 µM | [11] 5.94 µM | [12] 15.1 µM | [13] 13.6 µM | [14] 4.85 µM | [15] 3.15 µM | [16] 3.48 µM | [17] 15.1 µM | [18] 7.74 µM | [19] 2.29 µM | [20] 2.53 µM

Cc1ccc2c(ccc3c[n+]4ccccc4c(C)c32)c1.[O-][Cl+3]([O-])([O-])[O-]
active: [2] 0.297 µM | [7] 0.451 µM | [9] 0.581 µM | [18] 0.962 µM
inactive: [1] 20.7 µM | [3] 1.29 µM | [4] 10.3 µM | [5] > 100 µM | [6] 1.39 µM | [8] 1.34 µM | [10] 2.29 µM | [11] 26.4 µM | [12] 1.32 µM | [13] > 100 µM | [14] 7.91 µM | [15] 11.7 µM | [16] 4.16 µM | [17] 1.28 µM | [19] 4.73 µM | [20] 6.15 µM

COc1cc2c(cc1OCCCCCCCCCCN1C(=O)c3cccc4cccc(c34)C1=O)N=C[C@@H]1CCCN1C2=O
inactive: [1] 7.46 µM | [2] 4.43 µM | [3] 8.51 µM | [4] 6.68 µM | [5] 7.55 µM | [6] 6.55 µM | [7] 13.7 µM | [8] 16.1 µM | [9] 3.37 µM | [10] 4.95 µM | [11] 3.85 µM | [12] 6.21 µM | [13] 2.64 µM | [14] 2.41 µM | [15] 2.14 µM | [16] 5.26 µM | [17] 1.72 µM | [18] 4.34 µM | [19] 4.25 µM | [20] 6.76 µM

CC(=O)SC(C[N+](=O)[O-])c1ccc2c(c1)OCO2 (stereo not given)
inactive: [1] 5.46 µM | [2] 6.56 µM | [3] 15.9 µM | [4] 7.24 µM | [5] 2.1 µM | [6] 10.9 µM | [7] 9.31 µM | [8] 9.1 µM | [9] 5.37 µM | [10] 13.6 µM | [11] 1.9 µM | [12] 5.89 µM | [13] 11.6 µM | [14] 2.98 µM | [15] 1.81 µM | [16] 3.38 µM | [17] 18.7 µM | [18] 3.24 µM | [19] 3.54 µM | [20] 2.49 µM

CN(/N=C/C=N/N(C)C1=NCCCCN1)C1=NCCCCN1
inactive: [1] > 100 µM | [2] > 100 µM | [3] > 100 µM | [4] > 100 µM | [5] > 100 µM | [6] > 100 µM | [7] > 100 µM | [8] > 100 µM | [9] > 100 µM | [10] > 100 µM | [11] > 100 µM | [12] > 100 µM | [13] > 100 µM | [14] > 100 µM | [15] > 100 µM | [16] > 100 µM | [17] > 100 µM | [18] > 100 µM | [19] > 100 µM | [20] > 100 µM

COc1ccc(/C=C/C(=O)/C=C/c2ccc(OC)cc2OC)c(OC)c1
inactive: [1] 13.6 µM | [2] 5.35 µM | [3] 4.55 µM | [4] 7.35 µM | [5] 2.22 µM | [6] 24.7 µM | [7] 12.6 µM | [8] 1.39 µM | [9] 4.67 µM | [10] 11.6 µM | [11] 3.24 µM | [12] 10.2 µM | [13] 8.02 µM | [14] 4.8 µM | [15] 3.63 µM | [16] 2.79 µM | [17] 12.9 µM | [18] 5.32 µM | [19] 2.41 µM | [20] 2.64 µM

S=c1c2cc(I)ccc2nc(S)n1Cc1ccccc1
inactive: [1] 3.37 µM | [2] 3.78 µM | [3] 6.43 µM | [4] 4.1 µM | [5] 3.83 µM | [6] 2.99 µM | [7] 4.32 µM | [8] 2.44 µM | [9] 3.46 µM | [10] 5.57 µM | [11] 2.17 µM | [12] 2.91 µM | [13] 3.37 µM | [14] 3.18 µM | [15] 3.4 µM | [16] 3.54 µM | [17] 5.46 µM | [18] 3.72 µM | [19] 4.1 µM | [20] 18.4 µM

O=c1c2ccccc2nc2sc(/N=C/C=C/c3ccccc3)nn12
inactive: [1] 77.4 µM | [2] > 100 µM | [3] > 100 µM | [4] > 100 µM | [5] > 100 µM | [6] > 100 µM | [7] > 100 µM | [8] > 100 µM | [9] > 100 µM | [10] > 100 µM | [11] > 100 µM | [12] > 100 µM | [13] > 100 µM | [14] 44.9 µM | [15] 56.9 µM | [16] > 100 µM | [17] > 100 µM | [18] > 100 µM | [19] > 100 µM | [20] > 100 µM

Cc1nn(-c2ccccc2)c2c1C(c1cc3ccccc3nc1Cl)NC(=O)N2 (stereo not given)
inactive: [1] 14.3 µM | [2] 34.4 µM | [3] 27.4 µM | [4] 20.1 µM | [5] 18.5 µM | [6] 21.1 µM | [7] 20.7 µM | [8] 27.7 µM | [9] 17.1 µM | [10] 19.3 µM | [11] 18.5 µM | [12] 17.9 µM | [13] 28.4 µM | [14] 2.64 µM | [15] 19.4 µM | [16] 2.94 µM | [17] 19.1 µM | [18] 17.7 µM | [19] 23.9 µM | [20] 18.7 µM

N#CCC(=O)N/N=C(\CCN1CCCC1)CC(c1ccccc1)c1c(O)c2ccccc2oc1=O (stereo not given)
inactive: [1] 59.8 µM | [2] > 95.3 µM | [3] > 100 µM | [4] > 86.9 µM | [5] 58.6 µM | [6] > 100 µM | [7] > 100 µM | [8] > 70.6 µM | [9] 82.6 µM | [10] > 95.5 µM | [11] > 100 µM | [12] 97.1 µM | [13] 56.4 µM | [14] 24.5 µM | [15] > 41.3 µM | [16] 62.1 µM | [17] > 89.5 µM | [18] > 58.2 µM | [19] 57 µM | [20] > 88.7 µM

c1ccc2c(c1)CCN1CCc3c([nH]c4ccccc34)C21 (stereo not given)
inactive: [1] 28.6 µM | [2] 30.3 µM | [3] 30.8 µM | [4] 47 µM | [5] 25.1 µM | [6] 20 µM | [7] 67.5 µM | [8] 24.4 µM | [9] 34.2 µM | [10] 31.8 µM | [11] 21.5 µM | [12] 38.8 µM | [13] 22.1 µM | [14] 24.5 µM | [15] 22.8 µM | [16] 20.5 µM | [17] 41.7 µM | [18] 36.2 µM | [19] 26.7 µM | [20] 26.9 µM

Cc1ncc(COP(=O)(O)O)c(/C=C2\SC(=S)NC2=O)c1O
inactive: [1] > 100 µM | [2] > 100 µM | [3] > 100 µM | [4] > 100 µM | [5] > 100 µM | [6] > 22.3 µM | [7] > 100 µM | [8] > 100 µM | [9] > 100 µM | [10] > 100 µM | [11] > 100 µM | [12] > 100 µM | [13] > 100 µM | [14] > 100 µM | [15] > 100 µM | [16] > 85.7 µM | [17] > 100 µM | [18] > 100 µM | [19] > 100 µM | [20] > 100 µM

COc1nc(N)c(/N=C/C(OC(C)=O)C(OC(C)=O)C(COC(C)=O)OC(C)=O)c(=O)n1C (stereo not given)
inactive: [1] > 100 µM | [2] > 100 µM | [3] > 100 µM | [4] > 100 µM | [5] > 100 µM | [6] > 100 µM | [7] > 100 µM | [8] > 100 µM | [9] > 100 µM | [10] > 100 µM | [11] > 100 µM | [12] > 100 µM | [13] > 100 µM | [14] > 100 µM | [15] > 100 µM | [16] > 100 µM | [17] > 100 µM | [18] > 100 µM | [19] > 100 µM | [20] > 100 µM
